These results are taken from patent US9822130B2, “Triazolo-pyrazinyl derivatives useful as soluble guanylate cyclase activators” (Merck Sharp & Dohme Corp., priority 2014, dated 2017).

The first experiment has as its target T1, sGC α1/β1 heterodimer stably expressed in CHO-K1 cell line (CHO-K1/sGC) (Homo sapiens, UniProt Q02108+Q02153).
T1 construct: expressed in transfected cells
T1 sequence (Q02108 1-690): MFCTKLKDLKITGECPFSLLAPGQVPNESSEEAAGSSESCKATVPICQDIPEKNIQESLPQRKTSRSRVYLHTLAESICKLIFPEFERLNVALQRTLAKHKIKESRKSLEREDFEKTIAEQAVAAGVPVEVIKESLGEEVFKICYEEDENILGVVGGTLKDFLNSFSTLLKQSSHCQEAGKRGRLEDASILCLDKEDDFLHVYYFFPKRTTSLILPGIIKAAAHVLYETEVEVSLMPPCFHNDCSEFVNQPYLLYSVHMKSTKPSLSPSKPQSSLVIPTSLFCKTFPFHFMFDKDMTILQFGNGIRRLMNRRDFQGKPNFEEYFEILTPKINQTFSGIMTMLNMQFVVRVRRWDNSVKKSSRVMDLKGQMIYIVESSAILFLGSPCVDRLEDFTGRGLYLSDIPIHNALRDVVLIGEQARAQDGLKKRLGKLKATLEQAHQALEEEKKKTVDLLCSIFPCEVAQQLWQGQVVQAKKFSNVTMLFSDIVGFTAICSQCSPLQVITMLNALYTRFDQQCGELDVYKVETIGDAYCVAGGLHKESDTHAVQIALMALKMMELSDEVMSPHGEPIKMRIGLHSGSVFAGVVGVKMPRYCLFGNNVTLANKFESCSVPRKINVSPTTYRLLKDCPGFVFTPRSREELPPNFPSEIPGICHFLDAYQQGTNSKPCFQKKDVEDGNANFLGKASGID
T1 sequence (Q02153 1-619): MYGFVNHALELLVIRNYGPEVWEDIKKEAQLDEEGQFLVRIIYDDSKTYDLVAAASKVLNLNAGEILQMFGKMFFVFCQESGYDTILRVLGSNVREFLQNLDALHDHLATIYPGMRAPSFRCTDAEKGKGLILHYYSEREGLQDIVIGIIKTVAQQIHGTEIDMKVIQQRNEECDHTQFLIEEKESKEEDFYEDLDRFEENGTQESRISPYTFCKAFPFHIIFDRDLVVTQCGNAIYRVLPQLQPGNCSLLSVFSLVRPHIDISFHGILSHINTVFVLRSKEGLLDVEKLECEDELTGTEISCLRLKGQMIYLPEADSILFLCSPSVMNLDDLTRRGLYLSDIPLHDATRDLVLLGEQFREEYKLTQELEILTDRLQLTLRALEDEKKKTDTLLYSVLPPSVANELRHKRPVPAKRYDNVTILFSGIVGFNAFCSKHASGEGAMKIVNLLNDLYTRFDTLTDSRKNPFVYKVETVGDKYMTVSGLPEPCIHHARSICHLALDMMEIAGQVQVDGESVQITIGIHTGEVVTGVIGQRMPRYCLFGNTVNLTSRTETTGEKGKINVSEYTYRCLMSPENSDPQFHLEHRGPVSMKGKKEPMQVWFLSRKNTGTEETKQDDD
The experiment can be described thus: Cell-based sGC Functional Assay (CASA Assay), cGMP generation. The settings on record: CHO-K1/sGC cells, 1 hr at 37° C., cGMP by HTRF, 4P fit; presence or absence of 1 μM DETA-NO not given; read-out: IP (nM) (inflection point). In a few lines: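 CHO-K1 cells stably expressing human sGC α1/β1 (4×10^5/mL, 0.5 mM IBMX) were treated with compounds (2.5% DMSO final) ± 1 μM DETA-NO for 1 hr at 37° C. Intracellular cGMP measured by HTRF. Activity expressed as % of Compound A maximal cGMP; IP and maximum fold induction from 4P fit.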
On the technique in general: TR-FRET usually uses a lanthanide donor and a delayed reading to cut background.
Take `C[C@@]1(c2ccc(F)cc2)C(=O)Nc2nc(-c3cn4ncnc4c(Cc4ccc(F)cc4)n3)nc(O)c21` [Example 162B, (S)-2-(8-(4-fluorobenzyl)-[1,2,4]triazolo[1,5-a]pyrazin-6-yl)-5-(4-fluorophenyl)-4-hydroxy-5-methyl-5H-pyrrolo[2,3-d]pyrimidin-6(7H)-one]: the EC50 was 96.7 nM.

On to `CC(C)Cc1nc(-c2nc(O)c3c(n2)NC(=O)[C@@]3(C)c2ccc(F)cc2)cn2ncnc12` [Example 163A, (S)-5-(4-fluorophenyl)-4-hydroxy-2-(8-isobutyl-[1,2,4]triazolo[1,5-a]pyrazin-6-yl)-5-methyl-5,7-dihydro-6H-pyrrolo[2,3-d]pyrimidin-6-one], for which the EC50 stood at 1630 nM.

For the compound `CCCc1nc(-c2nc(O)c3c(n2)NC(=O)C3(C)c2ccc(Cl)cc2)cn2ncnc12` (stereo not shown) [Example 164A, 5-(4-chlorophenyl)-4-hydroxy-5-methyl-2-(8-propyl-[1,2,4]triazolo[1,5-a]pyrazin-6-yl)-5H-pyrrolo[2,3-d]pyrimidin-6(7H)-one], the EC50 came out at 780 nM.

As for `CCCc1nc(-c2nc(O)c3c(n2)NC(=O)[C@@]3(C)c2ccc(F)cc2)cn2ncnc12` [Example 165A, (S)-5-(4-fluorophenyl)-4-hydroxy-5-methyl-2-(8-propyl-[1,2,4]triazolo[1,5-a]pyrazin-6-yl)-5,7-dihydro-6H-pyrrolo[2,3-d]pyrimidin-6-one], the EC50 amounted to 1520 nM.

On to `CCCc1nc(-c2nc(O)c3c(n2)NC(=O)C3(C)c2ccc(Cl)c(F)c2)cn2ncnc12` (stereo not shown) [Example 166B, 5-(4-chloro-3-fluorophenyl)-4-hydroxy-5-methyl-2-(8-propyl-[1,2,4]triazolo[1,5-a]pyrazin-6-yl)-5H-pyrrolo[2,3-d]pyrimidin-6(7H)-one], for which the EC50 came to 711 nM.

As to `CCCc1nc(-c2nc(O)c3c(n2)NC(=O)C3(c2ccc(F)c(F)c2)C2CC2)cn2ncnc12` (stereo not shown) [Example 167A, 5-cyclopropyl-5-(3,4-difluorophenyl)-4-hydroxy-2-(8-propyl-[1,2,4]triazolo[1,5-a]pyrazin-6-yl)-5H-pyrrolo[2,3-d]pyrimidin-6(7H)-one], the EC50 turned out to be 1090 nM.

Take `CCCc1nc(-c2nc(O)c3c(n2)NC(=O)C3(C)c2ccc(Cl)cc2)cn2nc(C)nc12` (stereo not shown) [Example 168A, 5-(4-chlorophenyl)-4-hydroxy-5-methyl-2-(2-methyl-8-propyl-[1,2,4]triazolo[1,5-a]pyrazin-6-yl)-5H-pyrrolo[2,3-d]pyrimidin-6(7H)-one]: the EC50 was 1450 nM.

As to `CC1(c2ccc(F)c(F)c2)C(=O)Nc2nc(-c3cn4ncnc4c(CCC(F)(F)C(F)(F)F)n3)nc(O)c21` (stereo not shown) [Example 169B, 5-(3,4-Difluorophenyl)-4-hydroxy-5-methyl-2-(8-(3,3,4,4,4-pentafluorobutyl)-[1,2,4]triazolo[1,5-a]pyrazin-6-yl)-5,7-dihydro-6H-pyrrolo[2,3-d]pyrimidin-6-one], the EC50 is 111 nM.

As to `CC1(c2ccccc2F)C(=O)Nc2nc(-c3cn4ncnc4c(CCC(F)(F)C(F)(F)F)n3)nc(O)c21` (stereo not shown) [Example 170A, 5-(2-Fluorophenyl)-4-hydroxy-5-methyl-2-(8-(3,3,4,4,4-pentafluorobutyl)-[1,2,4]triazolo [1,5-a]pyrazin-6-yl)-5,7-dihydro-6H-pyrrolo [2,3-d]pyrimidin-6-one], the EC50 came out at 9.5 nM.

`CCCCc1nc(-c2nc(O)c3c(n2)NC(=O)C3(C)c2cccc(F)c2)cn2ncnc12` (stereo not shown) [Example 171A, 2-(8-Butyl-[1,2,4]triazolo[1,5-a]pyrazin-6-yl)-5-(3-fluorophenyl)-4-hydroxy-5-methyl-5,7-dihydro-6H-pyrrolo[2,3-d]pyrimidin-6-one]: the EC50 turned out to be 137 nM.

With `C[C@@]1(c2ccc(F)cc2)C(=O)Nc2nc(-c3cn4ncnc4c(CCC(F)(F)C(F)(F)F)n3)ncc21` [Example 172A, (S)-5-(4-fluorophenyl)-5-methyl-2-(8-(3,3,4,4,4-pentafluorobutyl)-[1,2,4]triazolo[1,5-a]pyrazin-6-yl)-5,7-dihydro-6H-pyrrolo[2,3-d]pyrimidin-6-one], the EC50 turned out to be 212 nM.

On to `CC(C)Cc1nc(-c2ncc3c(n2)NC(=O)[C@@]3(C)c2ccc(F)cc2)cn2ncnc12` [Example 173A, (S)-5-(4-fluorophenyl)-2-(8-isobutyl-[1,2,4]triazolo[1,5-a]pyrazin-6-yl)-5-methyl-5,7-dihydro-6H-pyrrolo[2,3-d]pyrimidin-6-one], for which the EC50 worked out at 574 nM.

Regarding `C[C@@]1(c2ccc(F)cc2)C(=O)Nc2nc(-c3cn4ncnc4c(CCC(F)(F)F)n3)ncc21` [Example 174A, (S)-5-(4-fluorophenyl)-5-methyl-2-(8-(3,3,3-trifluoropropyl)-[1,2,4]triazolo[1,5-a]pyrazin-6-yl)-5,7-dihydro-6H-pyrrolo[2,3-d]pyrimidin-6-one], the EC50 was 1350 nM.

As to `CC1(c2ccc(Cl)cn2)C(=O)Nc2nc(-c3cn4ncnc4c(CCC(F)(F)C(F)(F)F)n3)ncc21` (stereo not shown) [Example 175A, 5-(5-chloropyridin-2-yl)-5-methyl-2-(8-(3,3,4,4,4-pentafluorobutyl)-[1,2,4]triazolo[1,5-a]pyrazin-6-yl)-5H-pyrrolo[2,3-d]pyrimidin-6(7H)-one], the EC50 was 384 nM.

Regarding `CC1(c2ccc(F)cn2)C(=O)Nc2nc(-c3cn4ncnc4c(CCCC(F)(F)F)n3)ncc21` (stereo not shown) [Example 176B], the EC50 amounted to 526 nM.

As to `C[C@@]1(c2ccc(F)cc2)C(=O)Nc2nc(-c3cn4ncnc4c(CCC(F)(F)C(F)(F)F)n3)nc(C(N)=O)c21` [Example 177A, 5-(4-Fluorophenyl)-5-methyl-6-oxo-2-(8-(3,3,4,4,4-pentafluorobutyl)-[1,2,4]triazolo[1,5-a]pyrazin-6-yl)-6,7-dihydro-5H-pyrrolo[2,3-d]pyrimidine-4-carboxamide], the EC50 was 128 nM.

As to `NC(=O)c1nc(-c2cn3ncnc3c(CCCC(F)(F)F)n2)nc2c1C(c1ccc(C(F)(F)F)cn1)(C1CC1)C(=O)N2` (stereo not shown) [Example 178A], the EC50 amounted to 199 nM.

Consider `CC1(c2ccc(C(F)(F)F)cn2)C(=O)Nc2nc(-c3cn4ncnc4c(CCCC(F)(F)F)n3)nc(C(N)=O)c21` (stereo not shown) [Example 179B, 5-methyl-6-oxo-2-(8-(4,4,4-trifluorobutyl)-[1,2,4]triazolo[1,5-a]pyrazin-6-yl)-5-(5-(trifluoromethyl)pyridin-2-yl)-6,7-dihydro-5H-pyrrolo[2,3-d] pyrimidine-4-carboxamide], for which the EC50 worked out at 90.2 nM.

In the case of `CC1(c2ccc(C(F)F)cn2)C(=O)Nc2nc(-c3cn4ncnc4c(CCCC(F)(F)F)n3)nc(O)c21` (stereo not shown) [Example 181A, 4-hydroxy-5-(5-(difluoromethyl)pyridin-2-yl)-5-methyl-2-(8-(4,4,4-trifluorobutyl)-[1,2,4]triazolo[1,5-a]pyrazin-6-yl)-5H-pyrrolo[2,3-d]pyrimidin-6(7H)-one], the EC50 turned out to be 749 nM.

Staying with this experiment, now noted: CHO-K1/sGC cells, 1 hr at 37° C., cGMP by HTRF; presence or absence of 1 μM DETA-NO not given; read-out: % Act. (percent activation relative to maximum cGMP production of Compound A = 100%).
With `C[C@@]1(c2ccc(F)cc2)C(=O)Nc2nc(-c3cn4ncnc4c(Cc4ccc(F)cc4)n3)nc(O)c21` [Example 162B, (S)-2-(8-(4-fluorobenzyl)-[1,2,4]triazolo[1,5-a]pyrazin-6-yl)-5-(4-fluorophenyl)-4-hydroxy-5-methyl-5H-pyrrolo[2,3-d]pyrimidin-6(7H)-one], the Emax is 100%.

As for `CCCc1nc(-c2nc(O)c3c(n2)NC(=O)C3(c2ccc(F)c(F)c2)C2CC2)cn2ncnc12` (stereo not shown) [Example 167A, 5-cyclopropyl-5-(3,4-difluorophenyl)-4-hydroxy-2-(8-propyl-[1,2,4]triazolo[1,5-a]pyrazin-6-yl)-5H-pyrrolo[2,3-d]pyrimidin-6(7H)-one], the Emax is 70%.

In the case of `CCCCc1nc(-c2nc(O)c3c(n2)NC(=O)C3(C)c2cccc(F)c2)cn2ncnc12` (stereo not shown) [Example 171A, 2-(8-Butyl-[1,2,4]triazolo[1,5-a]pyrazin-6-yl)-5-(3-fluorophenyl)-4-hydroxy-5-methyl-5,7-dihydro-6H-pyrrolo[2,3-d]pyrimidin-6-one], the Emax stood at 90%.
